{"source": "patent US6506550B1", "about": "“Method of including apoptosis by reducing the level of thiamin” (Brandeis University, priority 1997, dated 2003)", "key": {"[1]": {"settings": "estimated (Woolley and White, 1943); cited from earlier work"}, "[2]": {"settings": "in vivo; cited from earlier work"}, "rat glioma C6 cells": {"test_system": "rat glioma C6 cells", "experiment": "Induction of apoptosis in rat glioma C6 cells", "assay_type": "cell-based", "settings": "for concentration active in inducing apoptosis: in vitro"}, "[3]": {"settings": "cited from earlier work"}, "[4]": {"settings": "extremely high doses; cited from earlier work"}, "mice": {"test_system": "mice", "settings": "cited from earlier work"}, "[5]": {"settings": "room temperature; cited from earlier work"}, "advanced ovarian cancer": {"test_system": "advanced ovarian cancer", "settings": "cited from earlier work"}, "Walker's sarcoma": {"test_system": "Walker's sarcoma", "settings": "rats; cited from earlier work"}}, "note": "“Also recorded” adds a separate entry of the source. Where two headings read alike, the source gives them in different places."}
{"smiles": "Cc1ncc(C[n+]2cccc(CCO)c2C)c(N)n1", "note": "[pyrithiamin]", "values": [{"measurement": "molecules required to nullify one molecule of thiamin", "setting": "[1]", "value": "about 40 molecules"}, {"measurement": "passage of the blood-brain barrier", "setting": "[2]", "value": "does"}, {"measurement": "concentration active in inducing apoptosis", "setting": "rat glioma C6 cells", "value": "≥ 10", "unit": "µM"}]}
{"smiles": "Cc1nc(N)cc(Cl)n1", "note": "[CMP, 4-Amino-6-chloro-2-methylpyrimidine]", "values": [{"measurement": "induction of apoptosis by Naegleria agent pretreated with CMP", "setting": "rat glioma C6 cells; CMP 2.5, 5, 10 mM, 16 h 25 °C, extract diluted to 10^−5, assay day 6 (FIG. 3)", "value": "prevented the induction of apoptosis; also recorded: did not induce apoptosis"}]}
{"smiles": "Cc1ncc(C[n+]2csc(CCO)c2C)c(N)n1", "note": "[thiamin]", "values": [{"measurement": "half-life in the body", "setting": "[3]; in vivo", "value": "220 to 432", "unit": "h"}, {"measurement": "oral amount above which thiamin is not absorbed", "setting": "[3]; oral, humans, excess excreted in urine and feces", "value": "3-10 mg per dose"}, {"measurement": "blood level causing respiratory paralysis", "setting": "[4]", "value": "≥ 70 mg of thiamin per liter of blood"}, {"measurement": "time to improvement after thiamin", "setting": "mice; mice that could no longer stand upright", "value": "one"}, {"measurement": "time to no discernible symptoms after thiamin", "setting": "mice; mouse, in vivo", "value": "≤ 20", "unit": "h"}, {"measurement": "pH at which the methylene bridge is easily cleaved", "setting": "[5]", "value": "≥ 9", "unit": "pH"}, {"measurement": "excess thiamin concentration that prevented induction of apoptosis by freshly added agent", "setting": "rat glioma C6 cells; Naegleria agent at dilution 10^−5, control medium 199", "value": "0.5-2 mg per liter"}]}
{"smiles": "N.N.[Cl][Pt][Cl]", "note": "[cisplatin]", "values": [{"measurement": "survival", "setting": "advanced ovarian cancer; intraperitoneal injection", "value": 49, "unit": "months"}, {"measurement": "survival", "setting": "advanced ovarian cancer; intravenous injection", "value": 41, "unit": "months"}]}
{"smiles": "CCCc1ncc(C[n+]2ccccc2C)c(N)n1", "note": "[Amprolium]", "values": [{"measurement": "concentration active in inducing apoptosis", "setting": "rat glioma C6 cells", "value": "≥ 600", "unit": "µM"}]}
{"smiles": "Cc1ncc(C[n+]2csc(CCO)c2C)c(=O)[nH]1", "note": "[oxythiamin]", "values": [{"measurement": "passage of the blood-brain barrier", "setting": "[2]", "value": "do not pass"}, {"measurement": "decrease in growth of Walker's sarcoma", "setting": "Walker's sarcoma", "value": 45, "unit": "%"}]}
